Reference: ChEMBL document CHEMBL1909046, “DrugMatrix in vitro pharmacology data”

Assays:
Neutrophil elastase = target: T1, Neutrophil elastase (Homo sapiens, UniProt P08246); format: tissue-based;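 further: inhibition of neutrophil elastase enzyme activity, measured with a p-nitroanilide-linked peptide substrate; in other assays of this panel Not Active means under 50% inhibition at 10 µM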
T1 sequence (P08246 whole entry): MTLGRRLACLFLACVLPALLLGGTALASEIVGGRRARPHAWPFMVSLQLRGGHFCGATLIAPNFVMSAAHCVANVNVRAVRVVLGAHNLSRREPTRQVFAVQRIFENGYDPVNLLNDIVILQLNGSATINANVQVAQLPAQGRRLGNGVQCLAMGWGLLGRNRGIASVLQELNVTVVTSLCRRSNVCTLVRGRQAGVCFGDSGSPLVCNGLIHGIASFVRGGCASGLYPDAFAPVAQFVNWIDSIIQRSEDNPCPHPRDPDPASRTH

D(1A) dopamine receptor = D(1A) dopamine receptor (Homo sapiens, UniProt P21728); assay: DRUGMATRIX: Dopamine D1 radioligand binding (ligand: [3H] SCH-23390); format: cell membranes, CHO, Membrane; settings: cho; Not Active = under 50% inhibition at 10 µM
[1] = target: Sodium-dependent dopamine transporter (Homo sapiens, UniProt Q01959); assay: DRUGMATRIX: Dopamine Transporter radioligand binding (ligand: [125I] RTI-55); format: cell membranes, CHO-K1, Membrane; settings: cho-k1; Not Active = under 50% inhibition at 10 µM
[2] = target: T2, Receptor-type tyrosine-protein phosphatase C (Homo sapiens, UniProt P08575); set-up: species or system Escherichia coli;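 further: inhibition of CD45 enzyme activity measured using DiFMUP as substrate; in other assays of this panel Not Active means under 50% inhibition at 10 µM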
T2 sequence (P08575 whole entry): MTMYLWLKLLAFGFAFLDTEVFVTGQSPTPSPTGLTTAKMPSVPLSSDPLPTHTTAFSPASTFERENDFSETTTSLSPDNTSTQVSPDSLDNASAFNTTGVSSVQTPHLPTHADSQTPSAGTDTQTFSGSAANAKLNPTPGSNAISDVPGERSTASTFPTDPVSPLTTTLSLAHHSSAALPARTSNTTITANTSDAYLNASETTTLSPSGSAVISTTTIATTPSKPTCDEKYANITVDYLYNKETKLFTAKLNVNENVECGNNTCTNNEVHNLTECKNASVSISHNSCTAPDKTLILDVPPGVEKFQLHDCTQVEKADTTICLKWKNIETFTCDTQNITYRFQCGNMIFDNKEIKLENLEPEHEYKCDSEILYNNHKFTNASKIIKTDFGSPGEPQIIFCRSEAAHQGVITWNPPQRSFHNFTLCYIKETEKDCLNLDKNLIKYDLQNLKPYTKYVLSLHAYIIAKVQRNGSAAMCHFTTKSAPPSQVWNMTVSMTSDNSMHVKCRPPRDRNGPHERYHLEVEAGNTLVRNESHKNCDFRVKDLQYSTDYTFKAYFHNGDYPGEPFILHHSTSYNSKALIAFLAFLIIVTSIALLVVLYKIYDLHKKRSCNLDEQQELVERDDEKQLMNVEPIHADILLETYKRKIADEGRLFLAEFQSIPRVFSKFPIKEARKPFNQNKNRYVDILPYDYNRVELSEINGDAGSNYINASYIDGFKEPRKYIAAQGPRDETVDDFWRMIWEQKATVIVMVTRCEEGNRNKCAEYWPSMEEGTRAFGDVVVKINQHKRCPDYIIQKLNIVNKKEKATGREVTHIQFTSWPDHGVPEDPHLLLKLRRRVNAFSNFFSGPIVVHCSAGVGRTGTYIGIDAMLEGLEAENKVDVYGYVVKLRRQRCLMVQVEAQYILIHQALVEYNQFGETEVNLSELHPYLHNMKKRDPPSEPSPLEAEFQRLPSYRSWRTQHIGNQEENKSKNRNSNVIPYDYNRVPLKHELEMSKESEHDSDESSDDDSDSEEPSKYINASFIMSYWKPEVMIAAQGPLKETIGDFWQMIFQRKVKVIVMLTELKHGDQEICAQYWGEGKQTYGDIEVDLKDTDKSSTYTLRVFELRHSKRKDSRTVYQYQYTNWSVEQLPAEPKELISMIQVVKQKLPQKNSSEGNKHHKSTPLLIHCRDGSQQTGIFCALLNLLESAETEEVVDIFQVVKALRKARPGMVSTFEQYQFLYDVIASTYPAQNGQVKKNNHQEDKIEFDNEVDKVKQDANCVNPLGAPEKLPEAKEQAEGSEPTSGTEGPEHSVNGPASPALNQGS

[3] = target: T3, Cholecystokinin receptor type A (Homo sapiens, UniProt P32238); format: cell membranes, Membrane; settings: 1321-n1; further: in other assays of this panel Not Active means under 50% inhibition at 10 µM
T3 sequence (P32238 whole entry): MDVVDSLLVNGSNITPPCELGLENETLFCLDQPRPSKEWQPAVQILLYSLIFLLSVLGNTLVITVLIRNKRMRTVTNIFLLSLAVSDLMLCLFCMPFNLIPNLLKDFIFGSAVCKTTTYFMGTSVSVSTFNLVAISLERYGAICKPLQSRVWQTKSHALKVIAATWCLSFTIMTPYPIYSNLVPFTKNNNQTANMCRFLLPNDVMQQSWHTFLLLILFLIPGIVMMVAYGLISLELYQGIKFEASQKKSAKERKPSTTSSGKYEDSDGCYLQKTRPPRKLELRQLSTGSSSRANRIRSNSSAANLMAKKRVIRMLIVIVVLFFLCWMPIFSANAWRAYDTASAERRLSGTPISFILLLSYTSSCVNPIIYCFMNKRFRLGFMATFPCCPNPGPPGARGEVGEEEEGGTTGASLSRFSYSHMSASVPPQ

D(3) dopamine receptor = D(3) dopamine receptor (Homo sapiens, UniProt P35462); assay: DRUGMATRIX: Dopamine D3 radioligand binding (ligand: [3H] Spiperone); format: cell membranes, CHO, Membrane; settings: cho
[4] = target: Mitogen-activated protein kinase 3 (Homo sapiens, UniProt P27361); assay: DRUGMATRIX: Protein Serine/Threonine Kinase, ERK1 enzyme inhibition (substrate: Myelin Basic Protein); set-up: species or system Escherichia coli; settings: Not Active = under 50% inhibition at 10 µM
Chain of Mitogen-activated protein kinase 3 (P27361 whole entry): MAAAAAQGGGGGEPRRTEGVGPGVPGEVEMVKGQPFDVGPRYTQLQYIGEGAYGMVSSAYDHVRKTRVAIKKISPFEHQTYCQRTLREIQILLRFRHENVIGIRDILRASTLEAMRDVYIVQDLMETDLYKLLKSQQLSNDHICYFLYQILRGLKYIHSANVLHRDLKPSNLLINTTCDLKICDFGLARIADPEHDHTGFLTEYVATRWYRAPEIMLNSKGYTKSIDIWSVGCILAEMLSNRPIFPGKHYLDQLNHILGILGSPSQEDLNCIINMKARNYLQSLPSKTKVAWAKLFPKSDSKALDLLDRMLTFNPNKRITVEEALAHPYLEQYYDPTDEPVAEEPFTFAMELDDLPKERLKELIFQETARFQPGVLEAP

Chain of D(3) dopamine receptor (P35462 whole entry): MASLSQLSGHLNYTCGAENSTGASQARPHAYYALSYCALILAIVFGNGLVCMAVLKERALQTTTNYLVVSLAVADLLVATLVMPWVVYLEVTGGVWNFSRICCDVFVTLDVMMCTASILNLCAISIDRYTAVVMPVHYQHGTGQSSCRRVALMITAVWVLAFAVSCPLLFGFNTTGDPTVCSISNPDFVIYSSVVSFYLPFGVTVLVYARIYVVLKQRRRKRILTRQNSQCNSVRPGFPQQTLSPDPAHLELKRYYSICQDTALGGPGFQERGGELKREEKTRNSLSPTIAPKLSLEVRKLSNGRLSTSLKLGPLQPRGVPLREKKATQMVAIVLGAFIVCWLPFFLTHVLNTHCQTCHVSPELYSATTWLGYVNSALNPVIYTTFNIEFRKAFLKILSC
Chain of Sodium-dependent dopamine transporter (Q01959 whole entry): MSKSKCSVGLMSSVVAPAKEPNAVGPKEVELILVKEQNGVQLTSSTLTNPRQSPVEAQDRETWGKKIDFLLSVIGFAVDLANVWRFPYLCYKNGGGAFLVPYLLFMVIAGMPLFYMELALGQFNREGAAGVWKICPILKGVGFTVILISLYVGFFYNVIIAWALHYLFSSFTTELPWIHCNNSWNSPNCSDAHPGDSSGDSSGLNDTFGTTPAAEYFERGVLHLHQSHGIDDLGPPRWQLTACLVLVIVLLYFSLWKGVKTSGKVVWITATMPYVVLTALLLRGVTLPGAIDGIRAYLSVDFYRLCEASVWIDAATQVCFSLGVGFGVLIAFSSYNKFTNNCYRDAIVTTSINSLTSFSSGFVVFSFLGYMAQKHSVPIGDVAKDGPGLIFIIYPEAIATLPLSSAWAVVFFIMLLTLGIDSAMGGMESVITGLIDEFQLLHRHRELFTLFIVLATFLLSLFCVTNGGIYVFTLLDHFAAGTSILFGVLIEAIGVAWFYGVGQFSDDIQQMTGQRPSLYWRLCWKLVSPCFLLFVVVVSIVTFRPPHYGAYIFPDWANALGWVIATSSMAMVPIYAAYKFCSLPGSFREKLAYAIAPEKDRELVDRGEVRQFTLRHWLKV
Chain of D(1A) dopamine receptor (P21728 whole entry): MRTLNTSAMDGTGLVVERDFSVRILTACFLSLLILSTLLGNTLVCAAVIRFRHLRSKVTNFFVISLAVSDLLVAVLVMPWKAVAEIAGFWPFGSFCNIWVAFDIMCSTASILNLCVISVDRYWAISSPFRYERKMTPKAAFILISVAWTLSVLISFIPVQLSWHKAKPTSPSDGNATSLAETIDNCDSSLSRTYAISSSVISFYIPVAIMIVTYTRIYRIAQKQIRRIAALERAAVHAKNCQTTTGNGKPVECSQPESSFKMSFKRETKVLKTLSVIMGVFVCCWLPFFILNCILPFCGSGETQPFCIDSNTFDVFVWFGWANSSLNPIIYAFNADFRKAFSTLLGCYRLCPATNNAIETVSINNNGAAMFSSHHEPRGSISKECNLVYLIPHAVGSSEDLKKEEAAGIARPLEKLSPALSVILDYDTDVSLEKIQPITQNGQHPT

C[C@]12CC[C@H]3[C@@H](CCC4=CC(=O)CC[C@@]43C)[C@@H]1CC[C@@H]2O [TESTOSTERONE]
Not Active: IC50 (Neutrophil elastase) | IC50 (D(1A) dopamine receptor) | IC50 [1] | IC50 [2] | IC50 [3] | IC50 (D(3) dopamine receptor) | IC50 [4]

CC(C)(C)NC[C@H](O)COc1nsnc1N1CCOCC1 [TIMOLOL]
Not Active: IC50 (Neutrophil elastase) | IC50 (D(1A) dopamine receptor) | IC50 [1] | IC50 [2] | IC50 [3] | IC50 (D(3) dopamine receptor) | IC50 [4]

CCS(=O)(=O)CCn1c([N+](=O)[O-])cnc1C [TINIDAZOLE]
Not Active: IC50 (Neutrophil elastase) | IC50 (D(1A) dopamine receptor) | IC50 [1] | IC50 [2] | IC50 [3] | IC50 (D(3) dopamine receptor) | IC50 [4]

C[C@@H]1C[C@H]2[C@@H]3CCC4=CC(=O)C=C[C@]4(C)C3=CC[C@]2(C)[C@H]1C(=O)CN1CCN(c2cc(N3CCCC3)nc(N3CCCC3)n2)CC1 [TIRILAZAD]
16300 nM: IC50 ([4]; read-out: IC50)
Not Active: IC50 (Neutrophil elastase) | IC50 (D(1A) dopamine receptor) | IC50 [1] | IC50 [2] | IC50 [3] | IC50 (D(3) dopamine receptor)

NC[C@H]1O[C@H](O[C@H]2[C@H](O)[C@@H](O[C@H]3O[C@H](CO)[C@@H](O)[C@H](N)[C@H]3O)[C@H](N)C[C@@H]2N)[C@H](N)C[C@@H]1O [TOBRAMYCIN]
Not Active: IC50 (Neutrophil elastase) | IC50 (D(1A) dopamine receptor) | IC50 [1] | IC50 [2] | IC50 [3] | IC50 (D(3) dopamine receptor) | IC50 [4]

O=C(O)C(Cl)(Cl)Cl [TRICHLOROACETIC ACID]
Not Active: IC50 (Neutrophil elastase) | IC50 (D(1A) dopamine receptor) | IC50 [1] | IC50 [2] | IC50 [3] | IC50 (D(3) dopamine receptor) | IC50 [4]

COc1ccc(CN2CCNCC2)c(OC)c1OC [TRIMETAZIDINE]
Not Active: IC50 (Neutrophil elastase) | IC50 (D(1A) dopamine receptor) | IC50 [1] | IC50 [2] | IC50 [3] | IC50 (D(3) dopamine receptor) | IC50 [4]

CC(=O)O[C@H]1C[C@@H]2CC[C@@H]3[C@H](CC[C@@]4(C)[C@H]3C[C@H]([N+]3(C)CCCCC3)[C@@H]4OC(C)=O)[C@@]2(C)C[C@@H]1N1CCCCC1.[Br-] [VECURONIUM BROMIDE]
Not Active: IC50 (Neutrophil elastase) | IC50 (D(1A) dopamine receptor) | IC50 [1] | IC50 [2] | IC50 [3] | IC50 (D(3) dopamine receptor) | IC50 [4]

COc1cc(C(=O)NS(=O)(=O)c2ccccc2C)ccc1Cc1cn(C)c2ccc(NC(=O)OC3CCCC3)cc12 [ZAFIRLUKAST]
4380 nM: IC50 ([4]; read-out: IC50)
Not Active: IC50 (Neutrophil elastase) | IC50 (D(1A) dopamine receptor) | IC50 [1] | IC50 [2] | IC50 [3] | IC50 (D(3) dopamine receptor)

Cc1cn([C@H]2C[C@H](N=[N+]=[N-])[C@@H](CO)O2)c(=O)[nH]c1=O [ZIDOVUDINE]
Not Active: IC50 (Neutrophil elastase) | IC50 (D(1A) dopamine receptor) | IC50 [1] | IC50 [2] | IC50 [3] | IC50 (D(3) dopamine receptor) | IC50 [4]

STANNOUS FLUORIDE
Not Active: IC50 (Neutrophil elastase) | Ki (Neutrophil elastase) | IC50 (D(1A) dopamine receptor) | Ki (D(1A) dopamine receptor) | IC50 [1] | Ki [1] | IC50 [2] | Ki [2] | IC50 [3] | Ki [3] | IC50 (D(3) dopamine receptor) | Ki (D(3) dopamine receptor) | IC50 [4] | Ki [4]

THIMEROSAL
Not Active: IC50 (Neutrophil elastase) | Ki (Neutrophil elastase) | IC50 (D(1A) dopamine receptor) | Ki (D(1A) dopamine receptor) | IC50 [1] | Ki [1] | IC50 [2] | Ki [2] | IC50 [3] | Ki [3]
774 nM: IC50 ([4]; read-out: IC50)
29 nM: Ki (D(3) dopamine receptor; read-out: Ki)
85 nM: IC50 (D(3) dopamine receptor; read-out: IC50)
